# Assay results published in patent US9689021B2, “Method for measuring beta-lactam antibiotics” (priority 2011, dated 2017).
# Experiments:
# [1] = target: class C beta-lactamase of Serratia marcescens (Serratia marcescens, UniProt P18539); details: Serratia marcescens, cited from earlier work
# [2] = target: class C beta-lactamase of Pseudomonas aeruginosa (Pseudomonas aeruginosa, UniProt P24735); details: Pseudomonas aeruginosa, cited from earlier work
# [3] = tested on: Oxa-29 class D beta-lactamase; assay: BLAC2 method, nitrocefin (CPR) rate with Oxa-29; assay type: biochemical
# Protocol: (§1) The dilution buffer for the enzymes, CPR, standards and samples was 50 mM PBS buffer, pH 7.0.
# (§2) The stock solution of CPR was 200 μM. Standards solution of ampicillin and cefuroxime were prepared at 100, 75, 50, 30, 15, 5, 1 and 0 mg/L.
# In the method 2 (BLAC2), 99 μl of sample, 99 μl of CPR and 22 μl of enzyme Oxa-29 were mixed. The reaction kinetics was determined by measuring the absorbance at 482 nm as a function of time. Enzyme activity v0 max was adjusted at +/−0.2 ΔAbs482/min.
# [4] = target: class C beta-lactamase of Citrobacter freundii (Citrobacter freundii, UniProt P05193); details: cited from earlier work
# [5] = target: class C beta-lactamase of Escherichia coli K12 (Escherichia coli, UniProt P00811); details: cited from earlier work
# [6] = tested on: class C beta-lactamase of Enterobacter cloacae 908R; details: cited from earlier work
# [7] = target: P99 class C beta-lactamase (Enterobacter cloacae, UniProt P05364); assay: BLAC1 method, nitrocefin (CPR) rate with P99 (Example 7); assay type: biochemical
# Protocol: as §1, §2
# In the method 1 (BLAC1), 10 μl of 50-fold diluted sample, 100 μl of CPR and 100 μl of enzyme P99 were mixed. The reaction kinetics was determined by measuring the absorbance at 482 nm as a function of time. Enzyme activity v0 max was adjusted at +/−0.33 ΔAbs482/min.
# [8] = target: class A beta-lactamase (penicillinase) TEM-1 (Escherichia coli, UniProt P62593); assay: BLAC2 method, nitrocefin (CPR) rate with Tem-1; assay type: biochemical; details: even at 100 mg/L, fixed CPR
# Protocol: In order to determine the concentration of ampicillin in a solution, two beta-lactamases were compared, in particular the class A beta-lactamase (penicillinase) TEM-1 (UniProt: C514X2_ECOLX) and the class C beta-lactamase of Enterobacter cloacae P99 described in Example 1.
# The dilution buffer for the enzymes, nitrocefin (CPR), standards and samples was 50 mM PBS buffer, pH 7. The stock solution of CPR was 200 μM. The standard solution of ampicillin was prepared at concentrations of 100, 75, 50, 30, 15, 5, 1 and 0 mg/L.
# In the method 2 (BLAC2), 99 μl of sample, 99 μl of CPR and 22 μl of enzyme, i.e. Tem-1 or P99, were mixed. The enzyme activity (v0 max) was adjusted at +/−0.2 ΔAbs482/min.
# [9] = target: class C beta-lactamase of Enterobacter cloacae P99 (Enterobacter cloacae, UniProt P05364); details: cited from earlier work
# Chain of class C beta-lactamase of Enterobacter cloacae P99 (P05364 21-381): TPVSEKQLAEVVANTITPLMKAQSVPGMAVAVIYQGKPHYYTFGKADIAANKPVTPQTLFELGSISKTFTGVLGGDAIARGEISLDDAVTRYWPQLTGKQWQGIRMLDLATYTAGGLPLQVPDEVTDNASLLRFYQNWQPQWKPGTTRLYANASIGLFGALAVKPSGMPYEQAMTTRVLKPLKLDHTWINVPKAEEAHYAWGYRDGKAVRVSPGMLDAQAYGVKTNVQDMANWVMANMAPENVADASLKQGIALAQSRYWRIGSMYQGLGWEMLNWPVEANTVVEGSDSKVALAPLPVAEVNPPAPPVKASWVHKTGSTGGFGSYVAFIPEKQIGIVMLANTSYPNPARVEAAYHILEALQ
# Chain of P99 class C beta-lactamase (P05364 21-381): as above
# Chain of class C beta-lactamase of Serratia marcescens (P18539 22-376): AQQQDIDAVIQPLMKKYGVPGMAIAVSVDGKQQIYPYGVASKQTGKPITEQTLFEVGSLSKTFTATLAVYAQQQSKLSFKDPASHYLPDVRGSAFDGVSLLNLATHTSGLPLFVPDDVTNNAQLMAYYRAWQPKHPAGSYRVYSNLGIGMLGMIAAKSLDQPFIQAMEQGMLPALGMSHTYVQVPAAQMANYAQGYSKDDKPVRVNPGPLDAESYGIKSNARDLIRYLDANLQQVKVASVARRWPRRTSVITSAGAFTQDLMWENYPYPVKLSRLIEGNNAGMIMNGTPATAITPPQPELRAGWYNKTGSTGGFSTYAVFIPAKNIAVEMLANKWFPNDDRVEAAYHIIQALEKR
# Chain of class C beta-lactamase of Pseudomonas aeruginosa (P24735 27-397): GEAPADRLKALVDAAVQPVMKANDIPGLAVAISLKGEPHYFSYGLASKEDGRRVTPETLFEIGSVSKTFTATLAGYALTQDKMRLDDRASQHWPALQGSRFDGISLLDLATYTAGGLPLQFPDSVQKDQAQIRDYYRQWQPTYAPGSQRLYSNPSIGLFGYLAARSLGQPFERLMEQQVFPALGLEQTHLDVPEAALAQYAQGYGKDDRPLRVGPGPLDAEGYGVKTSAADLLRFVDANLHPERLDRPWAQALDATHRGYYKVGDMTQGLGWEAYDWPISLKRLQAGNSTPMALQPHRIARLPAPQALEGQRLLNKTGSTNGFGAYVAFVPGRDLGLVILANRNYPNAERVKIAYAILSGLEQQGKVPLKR
# Chain of class C beta-lactamase of Citrobacter freundii (P05193 21-381): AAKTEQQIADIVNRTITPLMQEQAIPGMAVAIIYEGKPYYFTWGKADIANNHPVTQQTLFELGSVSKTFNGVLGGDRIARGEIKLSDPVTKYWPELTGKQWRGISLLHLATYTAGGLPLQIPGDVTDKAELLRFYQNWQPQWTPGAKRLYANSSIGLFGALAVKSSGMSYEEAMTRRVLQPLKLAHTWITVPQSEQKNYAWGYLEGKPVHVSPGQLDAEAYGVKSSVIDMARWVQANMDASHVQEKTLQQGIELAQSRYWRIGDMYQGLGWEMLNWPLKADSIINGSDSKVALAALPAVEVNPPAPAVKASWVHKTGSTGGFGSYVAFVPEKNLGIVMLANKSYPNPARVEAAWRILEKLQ
# Chain of class C beta-lactamase of Escherichia coli K12 (P00811 20-377): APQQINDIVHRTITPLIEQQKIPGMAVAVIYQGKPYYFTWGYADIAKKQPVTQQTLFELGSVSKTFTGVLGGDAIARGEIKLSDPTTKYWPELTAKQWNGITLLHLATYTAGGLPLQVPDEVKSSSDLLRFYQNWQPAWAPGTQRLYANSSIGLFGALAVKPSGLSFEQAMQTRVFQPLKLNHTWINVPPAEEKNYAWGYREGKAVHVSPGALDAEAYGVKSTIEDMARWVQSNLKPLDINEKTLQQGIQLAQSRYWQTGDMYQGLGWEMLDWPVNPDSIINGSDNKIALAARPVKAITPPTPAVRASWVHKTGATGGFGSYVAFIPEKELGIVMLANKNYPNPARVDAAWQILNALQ
# Chain of class A beta-lactamase (penicillinase) TEM-1 (P62593 24-286 limits assumed): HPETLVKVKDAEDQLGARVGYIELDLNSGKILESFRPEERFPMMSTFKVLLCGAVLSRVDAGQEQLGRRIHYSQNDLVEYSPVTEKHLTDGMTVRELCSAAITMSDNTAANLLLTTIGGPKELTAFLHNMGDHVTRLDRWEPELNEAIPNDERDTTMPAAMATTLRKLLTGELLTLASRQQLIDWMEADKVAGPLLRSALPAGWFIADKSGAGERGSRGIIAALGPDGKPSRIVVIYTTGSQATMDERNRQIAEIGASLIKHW
compound,measurement,setting,value
CC1(C)S[C@@H]2[C@H](NC(=O)[C@H](N)c3ccccc3)C(=O)N2[C@H]1C(=O)O [Ampicillin],kcat,[1],0.46 s⁻¹
same,Km,[1]; read-out: Km,0.01 µM
same,kcat,[2],4.4 s⁻¹
same,Km,[2]; read-out: Km,0.5 µM
same,rate of Oxa-29 Class D beta-lactamase,"[3]; BLAC2, 1 mg/L",0.1831 ΔAbs482/min
same,"residual rate minus 1, (vomax/v0)−1, Oxa-29","[3]; BLAC2, 1 mg/L",0.048
same,rate of Oxa-29 Class D beta-lactamase,"[3]; BLAC2, 5 mg/L",0.1680 ΔAbs482/min
same,"residual rate minus 1, (vomax/v0)−1, Oxa-29","[3]; BLAC2, 5 mg/L",0.142
same,rate of Oxa-29 Class D beta-lactamase,"[3]; BLAC2, 15 mg/L",0.1532 ΔAbs482/min
same,"residual rate minus 1, (vomax/v0)−1, Oxa-29","[3]; BLAC2, 15 mg/L",0.253
same,rate of Oxa-29 Class D beta-lactamase,"[3]; BLAC2, 30 mg/L",0.1292 ΔAbs482/min
same,"residual rate minus 1, (vomax/v0)−1, Oxa-29","[3]; BLAC2, 30 mg/L",0.485
same,rate of Oxa-29 Class D beta-lactamase,"[3]; BLAC2, 50 mg/L",0.1056 ΔAbs482/min
same,"residual rate minus 1, (vomax/v0)−1, Oxa-29","[3]; BLAC2, 50 mg/L",0.817
same,rate of Oxa-29 Class D beta-lactamase,"[3]; BLAC2, 75 mg/L",0.0869 ΔAbs482/min
same,"residual rate minus 1, (vomax/v0)−1, Oxa-29","[3]; BLAC2, 75 mg/L",1.208
same,rate of Oxa-29 Class D beta-lactamase,"[3]; BLAC2, 100 mg/L",0.0730 ΔAbs482/min
same,"residual rate minus 1, (vomax/v0)−1, Oxa-29","[3]; BLAC2, 100 mg/L",1.629
same,"linear regression coefficient a (Y=aX+b), Oxa-29","[3]; BLAC2, X in mg/L",0.0159
same,"linear regression coefficient b (Y=aX+b), Oxa-29","[3]; BLAC2, X in mg/L",0.0002
same,Km,[4],0.2 µM
same,kcat,[4],6.5 s⁻¹
same,Km,[5],3.5 µM
same,kcat,[5],4.2 s⁻¹
same,Km,[6],0.4 µM
same,kcat,[6],0.53 s⁻¹
same,rate of P99 class C beta-lactamase,"[7]; BLAC1, 1 mg/L",0.3221 ΔAbs482/min
same,"residual rate minus 1, (vomax/v0)−1, P99","[7]; BLAC1, 1 mg/L",0.004
same,rate of P99 class C beta-lactamase,"[7]; BLAC1, 5 mg/L",0.3207 ΔAbs482/min
same,"residual rate minus 1, (vomax/v0)−1, P99","[7]; BLAC1, 5 mg/L",0.008
same,rate of P99 class C beta-lactamase,"[7]; BLAC1, 15 mg/L",0.3164 ΔAbs482/min
same,"residual rate minus 1, (vomax/v0)−1, P99","[7]; BLAC1, 15 mg/L",0.022
same,rate of P99 class C beta-lactamase,"[7]; BLAC1, 30 mg/L",0.3114 ΔAbs482/min
same,"residual rate minus 1, (vomax/v0)−1, P99","[7]; BLAC1, 30 mg/L",0.038
same,rate of P99 class C beta-lactamase,"[7]; BLAC1, 50 mg/L",0.3008 ΔAbs482/min
same,"residual rate minus 1, (vomax/v0)−1, P99","[7]; BLAC1, 50 mg/L",0.075
same,rate of P99 class C beta-lactamase,"[7]; BLAC1, 75 mg/L",0.2909 ΔAbs482/min
same,"residual rate minus 1, (vomax/v0)−1, P99","[7]; BLAC1, 75 mg/L",0.111
same,rate of P99 class C beta-lactamase,"[7]; BLAC1, 100 mg/L",0.2806 ΔAbs482/min
same,"residual rate minus 1, (vomax/v0)−1, P99","[7]; BLAC1, 100 mg/L",0.152
same,"linear regression coefficient a (Y=aX+b), P99","[7]; BLAC1, X in mg/L",0.0015
same,"linear regression coefficient b (Y=aX+b), P99","[7]; BLAC1, X in mg/L",0.0000
same,inhibition of Tem-1 catalyzed reaction,[8],no inhibition of the reaction was observed
same,Km,[9],0.4 µM
same,kcat,[9],0.74 s⁻¹
